Laboratory results: US12185723B2, “Herbicidally active 3-phenylisoxazoline-5-carboxamides of s-containing cyclopentenylcarboxylic esters” (Bayer Aktiengesellschaft, priority 2019, dated 2025)

Key:
Type in all cases: in vivo
Pharbitis purpurea = test: Post-emergence herbicidal action against PHBPU
How it was run: (§1)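 WP- or EC-formulated compounds, with 0.5% additive, applied as a 600 l/ha spray onto green parts of one-leaf-stage plants grown 2–3 weeks in sandy loam. After roughly 3 weeks in the greenhouse, visual % activity scored versus untreated plants, 100% meaning death.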

Abutilon theophrasti = test: Post-emergence herbicidal action against ABUTH; conditions: visual rating about 3 weeks after treatment
How it was run: as §1

Avena fatua = test: Post-emergence herbicidal action against AVEFA; conditions: visual rating about 3 weeks after treatment
How it was run: as §1

DIGSA = test: Post-emergence herbicidal action against DIGSA; conditions: visual rating about 3 weeks after treatment
How it was run: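 Greenhouse-grown plants sprayed at one-leaf stage (2–3 weeks after sowing) with WP or EC formulations as aqueous suspension/emulsion plus 0.5% additive, 600 l/ha water. Activity rated visually about 3 weeks later versus untreated controls, 100% = plants dead, 0% = like controls.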

Setaria viridis = test: Post-emergence herbicidal action against SETVI; conditions: visual rating about 3 weeks after treatment
How it was run: as §1

Stellaria media = test: Post-emergence herbicidal action against STEME
How it was run: as §1

Amaranthus retroflexus = test: Post-emergence herbicidal action against AMARE
How it was run: as §1

Echinochloa crus-galli = test: Post-emergence herbicidal action against ECHCG; conditions: visual rating about 3 weeks after treatment
How it was run: as §1

Veronica persica = test: Post-emergence herbicidal action against VERPE
How it was run: as §1

Lolium rigidum = test: Post-emergence herbicidal action against LOLRI; conditions: visual rating about 3 weeks after treatment
How it was run: as §1

Hordeum murinum = test: Post-emergence herbicidal action against HORMU
How it was run: as §1

Viola tricolor = test: Post-emergence herbicidal action against VIOTR
Experimental: Post-Emergence Herbicidal Action Against Harmful Plants and Crop Plant Compatibility Seeds of monocotyledonous and dicotyledonous weeds and crop plants are placed in sandy loam in plastic or wood-fibre pots, covered with soil and cultivated in a greenhouse under controlled growth conditions. 2 to 3 weeks after sowing, the test plants are treated at the one-leaf stage. The compounds of the invention, formulated in the form of wettable powders (WP) or as emulsion concentrates (EC), are then sprayed onto the green parts of the plants as aqueous suspension or emulsion with addition of 0.5% additive at a water application rate of 600 l/ha (converted). After the test plants have been kept in the greenhouse under optimum growth conditions for about 3 weeks, the activity of the preparations is rated visually in comparison to untreated controls. For example, 100% activity=the plants have died, 0% activity=like control plants. [table]

Matricaria inodora = test: Post-emergence herbicidal action against MATIN
How it was run: as §1

Polygonum convolvulus = test: Post-emergence herbicidal action against POLCO
How it was run: as §1

Alopecurus myosuroides = test: Post-emergence herbicidal action against ALOMY; conditions: visual rating about 3 weeks after treatment
How it was run: as §1

[1] = 80 g a.i./ha, visual rating about 3 weeks after treatment

SMILES | Herbicidal action against [%] ABUTH (Abutilon theophrasti; 80 g a.i./ha) [%] | Herbicidal action against [%] AVEFA (Avena fatua; 20 g a.i./ha) [%] | Herbicidal action against [%] AVEFA (Avena fatua; 80 g a.i./ha) [%] | Herbicidal action against [%] DIGSA (DIGSA; 20 g a.i./ha) [%] | Herbicidal action against [%] DIGSA (DIGSA; 80 g a.i./ha) [%] | Herbicidal action against [%] SETVI (Setaria viridis; 20 g a.i./ha) [%] | Herbicidal action against [%] SETVI (Setaria viridis; 80 g a.i./ha) [%] | Herbicidal action against [%] STEME (Stellaria media; 20 g a.i./ha) [%] | Herbicidal action against [%] STEME (Stellaria media; 80 g a.i./ha) [%] | Herbicidal action against [%] ECHCG (Echinochloa crus-galli; 80 g a.i./ha) [%] | Herbicidal action against [%] VERPE (Veronica persica; 20 g a.i./ha) [%] | Herbicidal action against [%] VERPE (Veronica persica; 80 g a.i./ha) [%] | Herbicidal action against [%] LOLRI (Lolium rigidum; 20 g a.i./ha) [%] | Herbicidal action against [%] LOLRI (Lolium rigidum; 80 g a.i./ha) [%] | Herbicidal action against [%] HORMU (Hordeum murinum; 20 g a.i./ha) [%] | Herbicidal action against [%] HORMU (Hordeum murinum; 80 g a.i./ha) [%] | Herbicidal action against [%] VIOTR (Viola tricolor; 20 g a.i./ha) [%] | Herbicidal action against [%] MATIN (Matricaria inodora; [1]) [%] | Herbicidal action against [%] ALOMY (Alopecurus myosuroides; 20 g a.i./ha) [%] | Herbicidal action against [%] ALOMY (Alopecurus myosuroides; 80 g a.i./ha) [%] | other results
CSCCOC(=O)C1C=CC(NC(=O)C2(C)CC(c3cc(F)cc(F)c3)=NO2)C1 (stereo not drawn) [Example I-06] | 80 | 100 | 100 | 90 | 90 | 80 | 90 | 90 | 90 | 90 | 80 | 90 | 100 | 100 | 90 | 90 | 90 | 80 | 100 | 100 | Herbicidal action against [%] PHBPU (Pharbitis purpurea; 20 g a.i./ha): 80%; Herbicidal action against [%] PHBPU (Pharbitis purpurea; 80 g a.i./ha): 80%; Herbicidal action against [%] ABUTH (Abutilon theophrasti; 20 g a.i./ha): 80%; Herbicidal action against [%] AMARE (Amaranthus retroflexus; 20 g a.i./ha): 80%; Herbicidal action against [%] AMARE (Amaranthus retroflexus; [1]): 80%; Herbicidal action against [%] ECHCG (Echinochloa crus-galli; 20 g a.i./ha): 90%; Herbicidal action against [%] POLCO (Polygonum convolvulus; 20 g a.i./ha): 90%; Herbicidal action against [%] POLCO (Polygonum convolvulus; 80 g a.i./ha): 90%
CSCCOC(=O)C1C=CC(NC(=O)C2(C)CC(c3cc(Cl)cc(C#N)c3)=NO2)C1 (mixture of isomers) [Example I-49] | 80 | 90 | 90 | 80 | 90 | – | 80 | 90 | 90 | 80 | 80 | 90 | 90 | 90 | 80 | 80 | 90 | 80 | 90 | 100 | Herbicidal action against [%] PHBPU (Pharbitis purpurea; 20 g a.i./ha): 80%; Herbicidal action against [%] AMARE (Amaranthus retroflexus; 20 g a.i./ha): 90%; Herbicidal action against [%] AMARE (Amaranthus retroflexus; [1]): 100%; Herbicidal action against [%] VIOTR (Viola tricolor; 80 g a.i./ha): 80%
CSCCOC(=O)C1C=CC(NC(=O)C2(CCl)CC(c3cc(F)cc(F)c3)=NO2)C1 (stereo not drawn) [Example I-31] | 80 | 90 | 90 | 90 | 90 | 80 | 90 | 80 | 80 | 90 | 80 | 80 | 90 | 90 | 90 | 90 | 80 | 80 | 90 | 90 | Herbicidal action against [%] PHBPU (Pharbitis purpurea; 80 g a.i./ha): 90%; Herbicidal action against [%] AMARE (Amaranthus retroflexus; 20 g a.i./ha): 80%; Herbicidal action against [%] AMARE (Amaranthus retroflexus; [1]): 80%; Herbicidal action against [%] ECHCG (Echinochloa crus-galli; 20 g a.i./ha): 90%; Herbicidal action against [%] VIOTR (Viola tricolor; 80 g a.i./ha): 80%; Herbicidal action against [%] MATIN (Matricaria inodora; 20 g a.i./ha): 80%; Herbicidal action against [%] POLCO (Polygonum convolvulus; 20 g a.i./ha): 90%; Herbicidal action against [%] POLCO (Polygonum convolvulus; 80 g a.i./ha): 90%
CSCCOC(=O)C1C=CC(NC(=O)C2(C3CC3)CC(c3cc(F)cc(F)c3)=NO2)C1 (stereo not drawn) [Example I-28] | 90 | 90 | 90 | 90 | 90 | 90 | 90 | 90 | 90 | 90 | 90 | 90 | 90 | 90 | 90 | 90 | 90 | 90 | 90 | 90 | Herbicidal action against [%] ABUTH (Abutilon theophrasti; 20 g a.i./ha): 90%; Herbicidal action against [%] AMARE (Amaranthus retroflexus; 20 g a.i./ha): 80%; Herbicidal action against [%] AMARE (Amaranthus retroflexus; [1]): 80%; Herbicidal action against [%] ECHCG (Echinochloa crus-galli; 20 g a.i./ha): 90%; Herbicidal action against [%] VIOTR (Viola tricolor; 80 g a.i./ha): 80%; Herbicidal action against [%] MATIN (Matricaria inodora; 20 g a.i./ha): 80%; Herbicidal action against [%] POLCO (Polygonum convolvulus; 20 g a.i./ha): 80%; Herbicidal action against [%] POLCO (Polygonum convolvulus; 80 g a.i./ha): 90%
CSCCOC(=O)[C@@H]1C=C[C@H](NC(=O)C2(C(F)(F)F)CC(c3cc(F)cc(Cl)c3)=NO2)C1 (stereo partly drawn) [Example I-33, 2-methylsulfanylethyl (1S,4R)-4-[[3-(3-chloro-5-fluorophenyl)-5-(trifluoromethyl)-4H-isoxazole-5-carbonyl]amino]cyclopent-2-ene-1-carboxylate] | 80 | 80 | 100 | 80 | 80 | 80 | 80 | 90 | 90 | 80 | 80 | 80 | 90 | 90 | 80 | 90 | 90 | 80 | 80 | 90 | Herbicidal action against [%] ABUTH (Abutilon theophrasti; 20 g a.i./ha): 80%; Herbicidal action against [%] MATIN (Matricaria inodora; 20 g a.i./ha): 80%
